Test results taken from the PolyMetriX glass transition set.
± gives the standard deviation of the reports.

Row | Structure (SMILES) | glass transition temperature [°C]
1 | *c1ccc(Oc2ccc(C(=O)c3ccc(-c4ccc(C(=O)c5ccc(Oc6ccc(-c7nc(-c8ccc(-c9nc(*)c(-c%10ccccc%10)[nH]9)cc8)[nH]c7-c7ccccc7)cc6)cc5)cc4)cc3)cc2)cc1 (repeat unit) | 273.00
2 | *c1ccc(Oc2ccc(/C=C/c3ccc(Oc4ccc(-c5nnc(*)o5)cc4)cc3)cc2)cc1 (repeat unit) | 215.00
3 | *Oc1ccc(OC(=O)CCCCC(*)=O)cc1 (repeat unit) | 90.00
4 | */C(CC)=C(/*)c1ccccc1 (repeat unit) | 200.00
5 | *CC(*)(C)C(=O)OCCCCl (repeat unit) | 50.00
6 | *c1ccc(Oc2ccc(C(=O)c3cccc(C(=O)c4ccc(Oc5ccc(-c6nc(-c7ccccc7)[nH]c6*)cc5)cc4)c3)cc2)cc1 (repeat unit) | 230.00
7 | *c1ccc(Oc2ccc(-c3ccc(Oc4ccc(N5C(=O)c6cccc(Oc7c(C)cc(Cc8cc(C)c(Oc9cccc%10c9C(=O)N(*)C%10=O)c(C)c8)cc7C)c6C5=O)cc4)cc3)cc2)cc1 (repeat unit) | 259.00
8 | *O[Si](*)(C)CCCOc1ccc(C(=O)Oc2ccc(-c3ccc(OC(=O)c4ccc(OCC)cc4)cc3)cc2)cc1 (repeat unit) | 74.60
9 | *CC(CBr)O* (repeat unit) | -14.00
10 | *CNC(=O)CCCCC(=O)NCC1COC(*)CO1 (repeat unit) | 93.00
11 | *c1ccc(C(C)(C)c2ccc(N3C(=O)c4ccc(Oc5ccc(Oc6ccc7c(c6)C(=O)N(*)C7=O)cc5)cc4C3=O)cc2)cc1 (repeat unit) | 264.00
12 | *Oc1cccc(OC(=O)c2ccc(OC(=O)c3cccc(C(=O)Oc4ccc(C(*)=O)cc4)c3)cc2)c1 (repeat unit) | 158.00
13 | *c1ccc(Oc2ccc(-c3ccc(-c4ccc(-c5ccc(Oc6ccc(-c7c8c(c(*)c9ccccc79)C(=O)N(c7ccccc7)C8=O)cc6)c(C(F)(F)F)c5)cc4)cc3)cc2C(F)(F)F)cc1 (repeat unit) | 334.00
14 | *C(=O)OCCOC(=O)c1ccc(N2C(=O)c3ccc(*)cc3C2=O)cc1 (repeat unit) | 280.00
15 | *c1ccc(Oc2cccc(Oc3ccc(N4C(=O)c5ccc(-c6ccc7c(c6)C(=O)N(*)C7=O)cc5C4=O)cc3)c2)cc1 (repeat unit) | 234.00
16 | *c1ccc(Oc2ccccc2Oc2ccc(N3C(=O)c4ccc(-c5ccc6c(c5)C(=O)N(*)C6=O)cc4C3=O)cc2C(F)(F)F)c(C(F)(F)F)c1 (repeat unit) | 249.00
17 | *CC(*)c1cc(-c2ccc(C(=O)OC3CC(C)CCC3C(C)C)cc2)ccc1-c1ccc(C(=O)OC2CC(C)CCC2C(C)C)cc1 (repeat unit) | 217.50
18 | *OC(=O)Nc1ccc(Cc2ccc(NC(=O)OC3CC4CC(*)CC(C3)O4)cc2)cc1 (repeat unit) | 200.00
19 | *c1ccc(OCCN(CCOc2ccc(-c3nc4ccc(Oc5ccc6nc(*)c(-c7ccccc7)nc6c5)cc4nc3-c3ccccc3)cc2)c2ccc(/N=N/c3ccc([N+](=O)[O-])cc3)cc2)cc1 (repeat unit) | 199.00
20 | *CC(*)(C)C(=O)OCCCCCCOc1ccc(C(=O)Oc2ccc(/N=N/c3ccc(F)cc3)c3ccccc23)cc1 (repeat unit) | 42.00
21 | *CC(*)(C)C(=O)NC(=O)OCCOc1c(Br)cc(S(=O)(=O)c2cc(Br)c(OCCO)c(Br)c2)cc1Br (repeat unit) | 110.00

Row | Structure (SMILES) | glass transition temperature [°C]
22 | *CC(*)c1cc(C)c(C)cc1C (repeat unit) | 104.00
23 | *CCN(CCOC(=O)Nc1ccc(-c2ccc(NC(=O)O*)c(C)c2)cc1C)c1ccc(/N=N/c2ccc([N+](=O)[O-])cc2)cc1 (repeat unit) | 119.50
24 | *C(=O)c1ccc2c(c1)C(=O)N(c1ccc(C(=O)c3ccc(N4C(=O)c5ccc(*)cc5C4=O)cc3)cc1)C2=O (repeat unit) | 293.00 ± 4.9
25 | */C=C(\C#N)C(=O)OCCCCCCOC(=O)/C(C#N)=C/c1ccc2c(c1)c1cc(*)ccc1n2CCCCCCC (repeat unit) | 87.00
26 | *CCCCCCCCCCC(=O)Nc1ccc(NC(=O)CCCCCCCCCCN2C(=O)c3ccc(C(=O)c4ccc5c(c4)C(=O)N(*)C5=O)cc3C2=O)cc1 (repeat unit) | 125.00
27 | *CC(C)(CC)COC(=O)c1ccc(-c2ccc(C(=O)O*)cc2)cc1 (repeat unit) | 99.00
28 | *Oc1ccc(C(c2ccccc2)(c2ccccc2)c2ccc(OC(*)=O)cc2)cc1 (repeat unit) | 213.00
29 | *CCCCCCOc1ccc(C(=O)N(C(=O)c2ccc(O*)cc2)c2ccccc2)cc1 (repeat unit) | 100.00
30 | *c1ccc(OC(=O)c2ccc(C(=O)Oc3ccc(C4(*)c5ccccc5Oc5ccccc54)cc3)cc2)cc1 (repeat unit) | 252.00
31 | *Oc1ccc(S(=O)(=O)c2ccc(-c3ccc(-c4ccc(S(=O)(=O)c5ccc(*)cc5)cc4)cc3)cc2)cc1 (repeat unit) | 311.00
32 | *CCOCCOCCOCCOCCOCCOC(=O)c1cc(OCCCCCCOc2ccc(-c3ccc(OC)cc3)cc2)cc(C(=O)O*)c1 (repeat unit) | 12.50
33 | *C(=O)NCCN(CCNC(=O)c1ccc(N2C(=O)c3ccc(*)cc3C2=O)cc1)c1ccc(/C=C/c2ccc([N+](=O)[O-])cc2)cc1 (repeat unit) | 178.00
34 | *CC(*)c1ccccc1 (repeat unit) [atactic polystyrene] | 95.96 ± 28
35 | *Nc1cc(NC(=O)c2cccc(C(*)=O)c2)cc(C(=O)Oc2ccc(Oc3ccc(C#N)c(C#N)c3)cc2)c1 (repeat unit) | 305.00
36 | *Oc1ccc(C(c2ccc(OC(*)=O)cc2)C2C3CCC(C3)C2C)cc1 (repeat unit) | 232.00
37 | *c1ccc(Oc2ccc(Oc3ccc(Oc4ccc(-c5cnc6cc(-c7ccc8nc(*)cnc8c7)ccc6n5)cc4)cc3)cc2)cc1 (repeat unit) | 133.00
38 | *Oc1ccc(C(=C(Cl)Cl)c2ccc(OC(*)=O)cc2)cc1 (repeat unit) | 167.00
39 | *CCC1C(=O)N(CC)C(=O)C1* (repeat unit) | 109.20
40 | *CC(*)(C)C(=O)Oc1ccc(C(=O)Oc2ccc(C(=O)c3ccccc3)cc2)cc1 (repeat unit) | 72.00
41 | *NC1CCC(CCC2CCC(NC(=O)CCCCCCCCC(*)=O)CC2)CC1 (repeat unit) | 116.00
42 | *CC(*)OC(=O)C(C)(C(C)C)C(C)C (repeat unit) | 120.00

Row | Structure (SMILES) | glass transition temperature [°C]
43 | *CCCCCCCCNC(=O)CC(=O)N* (repeat unit) | 55.00
44 | *c1ccc2c(c1)C(=O)N(c1cc(OCCCCCCCC)cc(N3C(=O)c4ccc(C(*)(C(F)(F)F)C(F)(F)F)cc4C3=O)c1)C2=O (repeat unit) | 195.00
45 | *c1ccc(-c2ccc(N3C(=O)c4ccc(Oc5ccc6c(c5)C(=O)N(*)C6=O)cc4C3=O)cc2C)c(C)c1 (repeat unit) | 325.00
46 | *Oc1cccc(Oc2ccc(-c3ccc(*)cc3)cc2)c1C#N (repeat unit) | 210.00
47 | *CCC1CC2C(CC(*)C2OC(=O)CCCCCCCCCCOc2ccc(-c3ccc(C#N)cc3)cc2)C1OC(=O)CCCCCCCCCCOc1ccc(-c2ccc(C#N)cc2)cc1 (repeat unit) | 23.50
48 | *CC(*)c1ccc(N(c2ccccc2)c2ccccc2)cc1 (repeat unit) | 123.50
49 | *CC(*)C(=O)OCCCCCC(=O)Oc1ccc(-c2ccc(C#N)cc2)cc1 (repeat unit) | 38.00
50 | *Oc1ccc(C(c2ccc(Oc3ccc(C(=O)c4ccc(*)cc4)cc3)cc2)(C(F)(F)F)C(F)(F)F)cc1 (repeat unit) | 175.00
51 | *CC(CC)C(CC)COC(=O)c1ccc(C(=O)O*)cc1 (repeat unit) | 32.00
52 | *c1ccc(Oc2cccc(Oc3ccc(N4C(=O)c5cccc(Oc6ccc(S(=O)(=O)c7ccc(Oc8cccc9c8C(=O)N(*)C9=O)cc7)cc6)c5C4=O)cc3)c2)cc1 (repeat unit) | 230.00
53 | *c1ccc(NC(=O)c2cc(C(=O)Nc3ccc(S(*)(=O)=O)cc3)cc(S(=O)(=O)c3ccccc3)c2)cc1 (repeat unit) | 307.00
54 | *c1ccc([Si](c2ccccc2)(c2ccccc2)c2ccc(-c3nnc(-c4ccc(-c5nnc(*)o5)c5ccccc45)o3)cc2)cc1 (repeat unit) | 273.00
55 | *C(=O)Nc1ccc(Oc2ccc(C3(c4ccc(Oc5ccc(NC(=O)c6ccc7c(c6)C(=O)N(c6ccc(Oc8ccc(C9(c%10ccc(Oc%11ccc(N%12C(=O)c%13ccc(*)cc%13C%12=O)cc%11)cc%10)NC(=O)c%10ccccc%109)cc8)cc6)C7=O)cc5)cc4)NC(=O)c4ccccc43)cc2)cc1 (repeat unit) | 330.00
56 | *CCCCCCCCNC(=O)CCCCCCCCC(=O)N* (repeat unit) | 54.00
57 | *Nc1cc(NC(=O)c2ccc(C(*)=O)cc2)cc(-c2nc3ccccc3[nH]2)c1 (repeat unit) | 267.50
58 | *Oc1ccc(C(C)(C)c2ccc(OC(=O)Sc3ccc(C(C)(C)c4ccc(SC(*)=O)cc4)cc3)cc2)cc1 (repeat unit) | 154.00
59 | *Nc1ccc(Nc2ccc(C(O)(c3ccccc3)c3ccc(C(O)(c4ccccc4)c4ccc(*)cc4)cc3)cc2)cc1 (repeat unit) | 200.00
60 | *CC(*)OC(=O)c1ccc(CC)cc1 (repeat unit) | 57.00
61 | *c1cccc(S(=O)(=O)NCCCCCNS(*)(=O)=O)c1 (repeat unit) | 74.00
62 | */C(C#N)=C(\C#N)N1C(=O)c2ccc(C(=O)c3ccc(-c4ccc5c(c4)C(=O)N(*)C5=O)cc3)cc2C1=O (repeat unit) | 249.00
63 | *C(=O)Nc1ccc(NC(=O)c2ccc3[nH]c(-c4cc(-c5nc6cc(*)ccc6[nH]5)cc(N5C(=O)c6ccccc6C5=O)c4)nc3c2)cc1 (repeat unit) | 295.00
